From patent US4200573A, “Derivatives of 3-carboxyrifamycin S and SV and process for their preparation” (Alfa Farmaceutici, S.p.A., priority 1977, dated 1980) come the findings set out here.

The nature of data set [1]: chemical stability (observation). In kind it is physicochemical.
The subject of another data set is St. Aureus 209 P. The data set is described as follows: Minimal inhibiting concentration (MIC), in vitro antibacterial activity, St. Aureus 209 P. It counts as cell-based. Particulars: Staphylococcus aureus. From the text: (§1) The derivatives of 3-carboxyrifamycins S and SV according to the present invention have an antibacterial activity in vitro as shown by the data in the examples where are reported the minimal inhibiting concentrations (MIC) expressed in mcg/ml against different patogenic microorganisms.

The next data set deals with Klebsiella Ottaviani. The data set is described as follows: Minimal inhibiting concentration (MIC), in vitro antibacterial activity, Klebsiella Ottaviani. It counts as cell-based. Particulars: read-out: Minimal inhibiting concentration (MIC).
Text: as §1

For another data set, the system named is Salmonella p typhi B. The data set is described as follows: Minimal inhibiting concentration (MIC), in vitro antibacterial activity, Salmonella p typhi B. The following applies: read-out: Minimal inhibiting concentration (MIC). In kind it is cell-based.
Text: as §1

In a further data set the test system is E. Coli ML/35. The data set is described as follows: Minimal inhibiting concentration (MIC), in vitro antibacterial activity, E. Coli ML/35. It counts as cell-based. Particulars: Escherichia coli.
Text: as §1

In brackets after ≈: the same amount, converted by molar mass. Entries after “also recorded” stand apart in the source; their conditions may differ. Where only a bound is given, the exact number is not on record here.

Consider 3-carboxyrifamycin, for which, in data set [1], the stability result is “instable product and gives very easily rise to reaction of decarboxylation; also recorded: unstable product which easily decomposes”.

In the case of `COC(=O)C1=C2NC(=O)/C(C)=C\C=C\[C@H](C)[C@H](O)[C@@H](C)[C@@H](O)[C@@H](C)[C@H](OC(C)=O)[C@H](C)[C@@H](OC)/C=C/O[C@@]3(C)Oc4c(C)c(O)c(c(c4C3=O)C1=O)C2=O` [Example 6, 3-(carbomethoxy)rifamycin S], the MIC against St. Aureus 209 P is 0.05 to 0.1 µg/mL (≈ 0.0663 to 0.133 µM); with Klebsiella Ottaviani, 25 to 50 µg/mL (≈ 33.2 to 66.3 µM); in the data set with Salmonella p typhi B, above 50 µg/mL; against E. Coli ML/35 it was 25 to 50 µg/mL (≈ 33.2 to 66.3 µM).

In the case of `CO[C@H]1/C=C/O[C@@]2(C)Oc3c(C)c(O)c4c(c3C2=O)C(=O)C(C(=O)N2CCN(C)CC2)=C(NC(=O)/C(C)=C\C=C\[C@H](C)[C@H](O)[C@@H](C)[C@@H](O)[C@@H](C)[C@H](OC(C)=O)[C@@H]1C)C4=O` [Example 8, 3-(N-methyl N'-piperazinylcarbonyl)rifamycin S], the MIC was 0.1 to 0.25 µg/mL (≈ 0.122 to 0.304 µM) against St. Aureus 209 P, above 50 µg/mL in the data set on Klebsiella Ottaviani, above 50 µg/mL in the data set on Salmonella p typhi B and above 50 µg/mL against E. Coli ML/35.

For `CO[C@H]1/C=C/O[C@@]2(C)Oc3c(C)c(O)c4c(c3C2=O)C(=O)C(C(=O)NN(C)C)=C(NC(=O)/C(C)=C\C=C\[C@H](C)[C@H](O)[C@@H](C)[C@@H](O)[C@@H](C)[C@H](OC(C)=O)[C@@H]1C)C4=O` [Example 10, 3-(NN-dimethyl N-hydrazinocarbonyl)rifamycin S], the MIC with Klebsiella Ottaviani, with Salmonella p typhi B and with E. Coli ML/35 was above 50 µg/mL each time.

Take `CO[C@H]1/C=C/O[C@@]2(C)Oc3c(C)c(O)c4c(c3C2=O)C(=O)C(C(=O)OCC(O)CO)=C(NC(=O)/C(C)=C\C=C\[C@H](C)[C@H](O)[C@@H](C)[C@@H](O)[C@@H](C)[C@H](OC(C)=O)[C@@H]1C)C4=O` (some centres unmarked) [Example 12, 3-(1 glyceroxycarbonyl)rifamycin S]: the MIC in the data set with St. Aureus 209 P is around 0.5 µg/mL (≈ 0.614 µM); with Klebsiella Ottaviani, above 100 µg/mL; with Salmonella p typhi B it was above 100 µg/mL; in the data set with E. Coli ML/35 it was above 100 µg/mL.

Turning to `CO[C@H]1/C=C/O[C@@]2(C)Oc3c(C)c(O)c4c(c3C2=O)C(=O)C(C(=O)N(C)C)=C(NC(=O)/C(C)=C\C=C\[C@H](C)[C@H](O)[C@@H](C)[C@@H](O)[C@@H](C)[C@H](OC(C)=O)[C@@H]1C)C4=O` [Example 13, 3-(N,N dimethylaminocarbonyl)rifamycin S], the MIC in the data set on Klebsiella Ottaviani, in the data set with Salmonella p typhi B and against E. Coli ML/35 was above 50 µg/mL throughout.

In the case of `CO[C@H]1/C=C/O[C@@]2(C)Oc3c(C)c(O)c4c(c3C2=O)C(=O)C(C(=O)N(C)N2CCCCC2)=C(NC(=O)/C(C)=C\C=C\[C@H](C)[C@H](O)[C@@H](C)[C@@H](O)[C@@H](C)[C@H](OC(C)=O)[C@@H]1C)C4=O` [Example 14, 3-((N-(N'-piperidinyl)N-methyl)aminocarbonyl)rifamycin S], the MIC in the data set on St. Aureus 209 P was around 0.03 µg/mL (≈ 0.0359 µM); with Klebsiella Ottaviani it was above 50 µg/mL; in the data set on Salmonella p typhi B it was above 50 µg/mL; against E. Coli ML/35 it was above 50 µg/mL.
